≈ marks a conversion by molar mass, not a printed value.
Tested on: P388
Experiment: Cytotoxicity against cultured p-388 cells
Assay type: functional, cell-based
Conditions: Mus musculus

Question: With `COc1c(OC)c2c3c(nccc3c1OC)-c1cc(OC)c(=O)ccc1-2` as the compound, how does the IC50 read?
Answer: 1.2 µg/mL (≈ 3.42 µM)

Question: `COc1c(OC)c2c3c(nccc3c1OC)-c1cc(O)c(=O)ccc1-2` [GRANDIRUBRINE] was tested. Which IC50 did it give?
Answer: 0.18 µg/mL (≈ 0.534 µM)

Question: With `COc1cc2ccnc3c2c(c1OC)-c1ccc(=O)ccc1-3` [PAREITROPONE] as the compound, how does the IC50 read?
Answer: 0.0008 µg/mL (≈ 0.00275 µM)
